{
  "source": "patent US20220249504A1",
  "about": "“LONGEVITY SIGNATURES AND THEIR APPLICATIONS” (The Brigham and Women's Hospital, Inc., priority 2019, published 2022)",
  "key": {"[1]": {"tested_on": "C57BL/6 mice", "assay": "Glucose tolerance in old C57BL/6 mice on compound diet", "format": "in vivo, mouse", "conditions": "old C57BL/6 mice at the dose given in diet (AZD-8055: 23-month-old, treated 2.5 months)", "protocol": "23-month-old mice were treated for 2.5 months prior to analyses."}, "[2]": {"tested_on": "C57BL/6 mice", "assay": "Frailty index of old C57BL/6 mice on compound diet", "format": "in vivo, mouse", "protocol": "(§1) Briefly, 24-28 mice per intervention were used, with an approximately equal number of males and females. Mice were first assessed with regard to frailty index and gait speed, and then randomized to make sure the experimental and control groups had the same average frailty index and gait speed. Mice were then given a diet containing a compound of interest. […] Mice were monitored daily until they died. A separate cohort of old mice was assessed for frailty index and gait speed.\nas §1, with “females. They” for “females. Mice”"}, "[3]": {"tested_on": "C57BL/6 mice", "assay": "Gait speed of old C57BL/6 mice on compound diet", "format": "in vivo, mouse", "conditions": "31-month-old C57BL/6 male mice", "protocol": "as §1\nas §1, with “females. They” for “females. Mice”"}, "[4]": {"tested_on": "C57BI/6 mice", "assay": "Lifespan of old (2-year-old) C57BL/6 mice given a diet containing the compound", "format": "in vivo, mouse", "conditions": "C57BL/6 male mice, given late in life, ad libitum in diet (AZD-8055 20 mg/kg of food, LY294002 600 mg/kg, KU-0063794 10 mg/kg of diet)", "protocol": "as §1\nInterventions were predicted in a screen based on the gene expression longevity signatures that we developed. The predicted interventions were then verified for gene expression responses in human and mouse primary cell culture (hepatocytes) and in live mice (after mice were fed for 1 month with the diets containing these interventions). The interventions that passed these tests were further assessed for the effect on lifespan of 2-year-old C57BI/6 mice. Older mice (2-year-old) were chosen for this experiment in order to mimic the effect of giving interventions to human subjects in their second half of life.\nas §1, with “females. They” for “females. Mice”"}, "[5]": {"tested_on": "longevity signatures", "assay": "GSEA-based association of publicly available hepatic gene expression datasets with longevity signatures", "format": "in vivo, mouse", "conditions": "for Association of hepatic gene expression changes with longevity signatures: public datasets (IL-6 injection GSE21060; SRT2104 in males GSE49000)", "excerpt": "For interventions from publicly available sources (FIG. 7E (upper)), we downloaded them from GEO under the following accession numbers: GSE21060 (Ramadoss et al., 2010), GSE77082 (Alonso et al., 2017), GSE15891 (Baze et al., 2010), GSE11287 (Osburn et al., 2008), GSE49000 (Mercken et al., 2014), GSE10421 (Kautz et al., 2008) and GSE104234 (Rhoads et al., 2018). Data corresponding to Sirt6 overexpression (Kanfi et al., 2012) were downloaded via the link provided in the original paper. When running association test for the rhesus monkey data, we converted monkey genes to mouse orthologs using Ensembl BioMart platform. We preprocessed each dataset, performed quantile normalization and Entrez ID transformation and applied limma model for calculation of p-values, which were converted to log10(p-value) corrected by the sign of regulation as explained earlier.\nTo calculate statistical significance of obtained GSEA score, we performed permutation test where we randomly assigned genes to the lists of gene set maintaining their size. To get p-value of association between certain intervention and longevity signature, we calculated the frequency of real final GSEA score being bigger by absolute value than random final GSEA scores obtained as results of 3,000 permutations. To adjust for multiple comparisons, we performed Benjamini-Hochberg procedure. Resulted adjusted p-values were converted into significance scores as:\nsignificance score=−log10(adj.pv)×sgn(GSEA score),\nwhere adj. pv and GSEA score are BH adjusted p-value and final GSEA score, respectively. Heatmaps were colored based on values of significance scores. […]"}, "[6]": {"tested_on": "mice", "conditions": "cited from earlier work; for Effect on lifespan in the ITP mouse cohort: at the concentrations used (Miller et al., 2011; Strong et al., 2013, 2016)"}, "[7]": {"tested_on": "sex-associated genes", "assay": "Feminizing effect of lifespan-extending interventions on hepatic gene expression (RNAseq, UM-HET3 mice)", "conditions": "females", "from_the_text": "Liver samples corresponding to lifespan-extending interventions for RNA-seq and metabolome analysis were taken at 6 and 12 months of age from male and female mice treated by drugs or exposed to caloric restriction (CR) diet from 4 months of age along with control mice, which were untreated littermate mice matched by age and sex.\nIn all cases, interventions continued until the animals were sacrificed. […] RNA was extracted from liver tissues with PureLink RNA Mini Kit as described in the protocol and passed to sequencing.\nFor samples corresponding to lifespan-extending interventions, paired-end sequencing with 100 bp read length was performed on illumine HiSeq2000 platform. […] Quality filtering and adapter removal were performed using Trimmomatic version 0.32.\nWhen performing analysis of the feminizing effect, gene expression differences were identified between control males and females from UM-HET3 strains for each age group. […] The statistical significance of correlation between sex-associated differences and response to certain intervention (“feminizing effect”) was calculated using Spearman correlation test and adjusted for multiple comparisons with Benjamini-Hochberg procedure. When calculating correlation between response to certain intervention in specific age group (6 or 12 months) and female-associated differences, the latter were calculated using gene expression data for control males and females from the other age group (12 or 6 months, respectively). […]\nDifferences in the feminizing effect of interventions in certain age groups between males and females was tested by Spearman correlation test, applied to the difference in log2FC of gender-associated genes in response to the specified conditions between males and females, and female-associated differences based on the other age group, with the following Benjamini-Hochberg adjustment. Manhattan distance between male and female gene expression profiles was calculated for individual samples in a pairwise manner using intersection of sex-specific gene sets across age groups. […]"}, "[8]": {"tested_on": "mouse liver gene expression", "assay": "Meta-analysis: Spearman correlation between hepatic gene expression profiles of interventions", "format": "in vivo", "conditions": "for Correlation with the main cluster of interventions (defined by CR and GH deficiency): median Spearman correlation matrix", "excerpt": "To identify signatures associated with lifespan extension and the effect of certain interventions, we expanded our data with publicly available datasets from Gene Expression Omnibus (GEO) (Edgar, 2002) and ArrayExpress (Kolesnikov et al., 2015) databases. For the analysis of signatures associated with certain interventions (CR, rapamycin, GH deficiency), we integrated available gene expression data obtained from liver of mice from healthy genetic strains on standard diets subjected to CR, rapamycin and mutations associated with GH deficiency (Ames dwarf mice, GHRKO, Little mice, Snell dwarf mice). […] Finally, for the analysis of signatures associated with the lifespan extension effect, we integrated datasets on interventions with available and reliable survival data corresponding to the same experimental design (sex, strain, dose, age when the intervention started). In total, our hepatic meta-analysis covered 17 different interventions presented in 77 control-intervention datasets from 22 different sources (including ours) (FIG. 3D). The same approach was used to obtain microarray data corresponding to white adipose tissue (WAT) (9 control-intervention datasets from 5 sources) and skeletal muscle (13 control-intervention datasets from 9 sources).\nTo aggregate data across different platforms and studies, we developed the following method. First, data within each study was preprocessed independently and log-transformed to conform to normal distribution if needed. Then, filtering of low-covered genes was performed with soft threshold. Then, all identifiers were mapped to Entrez ID gene format, and genes not detected in our RNAseq data were filtered out. […] Afterwards, samples within every study were normalized by quantile normalization and scaling, followed by multiplication by the certain value to make it on the same scale as RNAseq data with more natural interpretation. Finally, mean and standard error of logFC of every gene for every response to intervention was calculated together with p-value (along with Benjamini-Hochberg adjusted p-value) estimated by edgeR (Robinson et al., 2009) and limma (Ritchie et al., 2015) for RNAseq and microarrays datasets, respectively. […] Importantly, one study may include several datasets if several interventions or settings have been analyzed there, and sometimes, different interventions or doses share the same control samples. This may be a source of batch effect, which we removed during subsequent steps of the analysis.\nTo calculate correlations between interventions in unbiased way, we applied the following approach. For every pair of interventions, including comparison of intervention with itself, we examined all pairs of datasets from different sources. For each such pair we selected 250 genes consisting of 125 genes with the most significant expression change (with the lowest p-values) from each dataset and calculated Spearman correlation coefficient within the pair. We reiterated this algorithm and, as a result, for every pair of interventions obtained distribution of Spearman correlation coefficients, calculated between datasets from different sources. For CR and rapamycin, we visualized these distributions using violinplot. One-sample Mann-Whitney test and Benjamini-Hochberg adjustment were used to check if means of correlation coefficients are different from 0 with statistical significance. We declared correlation coefficient to be significant if adjusted p-value was smaller than 0.1.\nFor correlation matrix we employed median values of Spearman correlation coefficients. By filtering out comparisons of datasets from the same source, we removed possible batch effect and ended up with independent and unbiased comparison of interventions. However, as some interventions were presented only within the same source, we couldn't estimate unbiased correlation for such cases. This missing data was visualized by grey boxes. […]"}, "[9]": {"conditions": "datasets from different sources, 250 genes"}},
  "note": "“Also recorded” adds a separate entry of the source.",
  "data": [
    {"compound": "COc1ccc(-c2ccc3c(N4CCOC[C@@H]4C)nc(N4CCOC[C@@H]4C)nc3n2)cc1CO", "note": "[AZD-8055, 5-[2,4-bis[(3S)-3-methyl-4-morpholinyl]pyrido[2,3-d]pyrimidin-7-yl]-2-methoxy-benzenemethanol]", "values": [
      {"measurement": "Effect on glucose tolerance", "setting": "[1]", "result": "does not lead to glucose intolerance; also recorded: did not compromise"},
      {"measurement": "Effect on frailty index", "setting": "[2]; old C57BL/6 mice, males and females", "result": "no effect"}
    ]},
    {"compound": "O=c1cc(N2CCOCC2)oc2c(-c3ccccc3)cccc12", "note": "[LY294002, 2-Morpholin-4-yl-8-phenylchromen-4-one]", "values": [
      {"measurement": "Effect on gait speed", "setting": "[3]", "result": "improves"},
      {"measurement": "Effect on glucose tolerance", "setting": "[1]", "result": "No effect; also recorded: did not have a significant effect"},
      {"measurement": "Effect on lifespan", "setting": "[4]", "result": "extends lifespan"},
      {"measurement": "Effect on frailty index", "setting": "[2]; 31-month-old C57BL/6 male mice", "result": "improves"}
    ]},
    {"compound": "Cc1nc(-c2cccnc2)sc1C(=O)Nc1ccccc1-c1cn2c(CN3CCOCC3)csc2n1", "note": "[SRT2104]", "values": [
      {"measurement": "Association with longevity signatures associated with the quantitative effect of lifespan extension", "setting": "[5]; males, public dataset", "result": "no consistent positive association"},
      {"measurement": "Association of hepatic gene expression changes with longevity signatures", "setting": "[5]", "result": "significant positive associations of these models in males with CR and signatures shared by lifespan-extending interventions"},
      {"measurement": "Increase in median and maximum lifespan", "setting": "[6]; male mice (Mercken et al., 2014b)", "result": "~10", "unit": "%"}
    ]},
    {"compound": "C[C@H]1O[C@H](O[C@H]2[C@H](O)[C@@H](O)[C@@H](O[C@H]3[C@H](O)[C@@H](O)C(O)O[C@@H]3CO)O[C@@H]2CO)[C@H](O)[C@@H](O)[C@@H]1N[C@H]1C=C(CO)[C@@H](O)[C@H](O)[C@H]1O", "note": "(stereo partly drawn) [acarbose]", "values": [
      {"measurement": "Feminizing effect (Spearman correlation with sex-associated gene expression differences)", "setting": "[7]; 12-month-old", "result": 0.19}
    ]},
    {"compound": "CN(C)C(=N)N=C(N)N", "note": "[metformin]", "values": [
      {"measurement": "Effect on lifespan in the ITP mouse cohort", "setting": "[6]", "result": "did not increase lifespan"},
      {"measurement": "Correlation with CR at the level of gene expression (median Spearman correlation coefficient)", "setting": "[8]; [9]", "result": "statistically significant positive correlations"},
      {"measurement": "Correlation with the main cluster of interventions (defined by CR and GH deficiency)", "setting": "[8]", "result": "week positive correlation"}
    ]},
    {"compound": "CO[C@H]1C[C@@H]2CC[C@@H](C)[C@@](O)(O2)C(=O)C(=O)N2CCCC[C@H]2C(=O)O[C@H]([C@H](C)C[C@@H]2CC[C@@H](O)[C@H](OC)C2)CC(=O)[C@H](C)/C=C(\\C)[C@@H](O)[C@@H](OC)C(=O)[C@H](C)C[C@H](C)/C=C/C=C/C=C/1C", "note": "[rapamycin]", "values": [
      {"measurement": "Feminizing effect (Spearman correlation with sex-associated gene expression differences)", "setting": "[7]; 6-month-old", "result": "−0.14"},
      {"measurement": "Feminizing effect (Spearman correlation with sex-associated gene expression differences)", "setting": "[7]; 12-month-old", "result": "−0.49"},
      {"measurement": "Correlation of the intervention with itself across datasets (median Spearman correlation coefficient)", "setting": "[8]; [9]", "result": 0.088},
      {"measurement": "Correlation with CR at the level of gene expression (median Spearman correlation coefficient)", "setting": "[8]; [9]", "result": "−0.049"}
    ]},
    {"compound": "Oc1ccc(C=Cc2cc(O)cc(O)c2)cc1", "note": "[resveratrol]", "values": [
      {"measurement": "Effect on lifespan in the ITP mouse cohort", "setting": "[6]", "result": "did not increase lifespan"},
      {"measurement": "Correlation with CR at the level of gene expression (median Spearman correlation coefficient)", "setting": "[8]; [9]", "result": "statistically significant positive correlations"},
      {"measurement": "Correlation with the main cluster of interventions (defined by CR and GH deficiency)", "setting": "[8]", "result": "week positive correlation"}
    ]},
    {"compound": "interleukin-6: pro-inflammatory cytokine secreted by T cells and macrophages", "values": [
      {"measurement": "Association of hepatic gene expression changes with longevity signatures", "setting": "[5]", "result": "significant negative association with all longevity signatures"}
    ]}
  ]
}
